Experiments:
SHP-1 = target: T1, SHP-1 (Homo sapiens, UniProt P29350); test: PTP Enzyme Assay (DiFMUP), SHP-1; format: biochemical; conditions: 20 λM DiFMUP; read-out: IC50 value in respect of SHP-1
T1 construct: using the catalytic core of a human recombinant PTP as the enzyme
T1 sequence (P29350 244-515 limits assumed): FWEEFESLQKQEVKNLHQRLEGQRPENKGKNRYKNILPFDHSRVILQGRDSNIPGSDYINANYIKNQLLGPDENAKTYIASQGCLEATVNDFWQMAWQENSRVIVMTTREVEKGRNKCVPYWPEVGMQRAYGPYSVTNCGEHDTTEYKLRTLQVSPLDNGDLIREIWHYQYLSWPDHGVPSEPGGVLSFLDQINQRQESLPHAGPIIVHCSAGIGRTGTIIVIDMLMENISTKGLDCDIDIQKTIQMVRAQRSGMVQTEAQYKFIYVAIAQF
Method: (§1) The PTP Enzyme Assay aims at determining the extent of inhibition of PTPs, e.g. of PTP1B, SHP-1, SHP-2 or GLEPP-1 in the presence of a test compound of formula (I). The inhibition is illustrated by IC50 values which denote the concentration of test compound necessary to achieve an inhibition of 50% of said PTP's using the following concentration of the PTP substrate DiFMUP: • 5 μM DiFMUP for PTP1B; • 20 […] DiFMUP for SHP-1 and SHP-2; • 30 μM DiFMUP for GLEPP-1. a) PTPs Cloning […]
(§2) Assays were performed in a 96 well plate format, using the catalytic core of a human recombinant PTP as the enzyme and 6,8-DiFluoro-4-MethylUmbelliferyl Phosphate (DiFMUP, Molecular Probes, D-6567) as a substrate. […] The reaction ran for 30 minutes at room temperature before reading the fluorescence intensity (integral or intensity) on a Perkin-Elmer Victor 2 spectrofluorimeter (excitation of 6,8-difluoro-7-hydroxy coumarin is at 355 nm, the emission at 460 nm, for 0.1 s). The percentage of inhibition is determined by measuring the relative fluorescence ion absence of a test compound (PTP inhibitor), i.e. with the solvent alone (5% DMSO). The IC50 values for inhibition were determined in triplicates.

SHP-2 = target: T2, SHP-2 (Homo sapiens, UniProt Q06124); test: PTP Enzyme Assay (DiFMUP), SHP-2; format: biochemical; conditions: 20 λM DiFMUP; read-out: IC50 value in respect of SHP-2
T2 construct: using the catalytic core of a human recombinant PTP as the enzyme
T2 sequence (Q06124 247-517 limits assumed): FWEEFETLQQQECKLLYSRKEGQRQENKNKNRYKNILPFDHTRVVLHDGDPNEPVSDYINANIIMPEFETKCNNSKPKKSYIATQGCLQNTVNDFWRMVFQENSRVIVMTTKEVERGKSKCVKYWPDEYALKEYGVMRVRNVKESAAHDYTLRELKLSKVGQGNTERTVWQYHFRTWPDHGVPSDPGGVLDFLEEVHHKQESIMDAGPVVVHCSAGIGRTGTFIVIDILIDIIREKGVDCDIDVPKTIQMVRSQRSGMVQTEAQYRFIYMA
Method: as §1, §2

GLEPP-1 = target: T3, GLEPP-1 (Homo sapiens, UniProt Q16827); test: PTP Enzyme Assay (DiFMUP), GLEPP-1; format: biochemical; conditions: 30 μM DiFMUP; read-out: IC50 value in respect of GLEPP-1
T3 construct: using the catalytic core of a human recombinant PTP as the enzyme
T3 sequence (Q16827 938-1195 limits assumed): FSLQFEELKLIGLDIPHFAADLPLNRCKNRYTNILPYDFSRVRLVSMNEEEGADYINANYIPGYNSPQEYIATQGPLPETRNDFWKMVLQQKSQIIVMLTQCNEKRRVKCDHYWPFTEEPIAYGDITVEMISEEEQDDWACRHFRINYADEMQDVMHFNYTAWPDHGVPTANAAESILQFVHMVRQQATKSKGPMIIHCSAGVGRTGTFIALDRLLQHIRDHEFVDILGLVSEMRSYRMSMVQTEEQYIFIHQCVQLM
Method: as §1, §2

db/db mice = test: In vivo assay in db/db mice (postprandial glycemia); conditions: 4 hrs after drug administration
Method: The following assay aims at determining the anti-diabetic effect of the test compounds of formula (I) in a model of postprandial glycemia in db/db mice, in vivo.
A total of 24 db/db mice (about 8-9 weeks; obtained from IFFACREDO, l'Arbreste, France) were fasted during 20 hours.
4 groups, each consisting of 6 animals were formed:
Group 1: The animals were administered (per os) a dose of […] of vehicle.
Group 2: The animals were administered (per os) a dose of 20 mg/kg of the test compound according to formula (I).
Group 3: The animals were administered (per os) a dose of 100 mg/kg of the test compound according to formula (I).
Group 4: The animals were administered (per os) a dose of 200 mg/kg of the test compound according to formula (I).
After oral administration of the compounds of formula (I) solubilized or suspended in CarboxyMethylCellulose (0.5%), Tween 20 (0.25%) and water as vehicle, the animals had access to commercial food (D04, UAR, Villemoisson/Orge, France) ad libitum. The diabetic state of the mice was verified by determining the blood glucose level before drug administration. Blood glucose and serum insulin levels were then determined 4 hrs after drug administration.
The determination of the blood glucose level was performed using a glucometer (Precision Q.I.D., Medisense, Abbot, ref. 212.62.31).
The determination of the Insulin level was performed using an ELISA kit (Crystal CHEM, Ref. INSK R020).
Changes in blood glucose and serum insulin of drug treated mice were expressed as a percentage of control (group 1: vehicle treated mice).

PTP1B = target: T4, PTP1B (Homo sapiens, UniProt P18031); test: PTP Enzyme Assay (DiFMUP), PTP1B; format: biochemical; conditions: 5 μM DiFMUP; read-out: IC50 value in respect of PTP1B
T4 construct: The cloning and expression of the catalytic domain of PTPIB, may be performed as described in J. Biol. Chem. 2000; made in house
T4 sequence (P18031 3-277 limits assumed): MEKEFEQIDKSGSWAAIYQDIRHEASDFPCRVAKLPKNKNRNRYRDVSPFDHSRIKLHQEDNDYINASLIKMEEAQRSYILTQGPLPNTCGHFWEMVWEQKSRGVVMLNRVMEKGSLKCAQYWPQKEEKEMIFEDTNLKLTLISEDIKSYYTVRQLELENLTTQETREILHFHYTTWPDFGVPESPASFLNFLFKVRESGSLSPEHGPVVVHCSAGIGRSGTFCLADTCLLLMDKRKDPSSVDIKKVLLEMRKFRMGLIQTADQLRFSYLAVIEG
Method: The PTP Enzyme Assay aims at determining the extent of inhibition of PTPs, e.g. of PTP1B, SHP-1, SHP-2 or GLEPP-1 in the presence of a test compound of formula (I). The inhibition is illustrated by IC50 values which denote the concentration of test compound necessary to achieve an inhibition of 50% of said PTP's using the following concentration of the PTP substrate DiFMUP: • 5 μM DiFMUP for PTP1B; • 20 […] DiFMUP for SHP-1 and SHP-2; • 30 μM DiFMUP for GLEPP-1. a) PTPs Cloning
The cloning and expression of the catalytic domain of PTPIB, may be performed as described in J. Biol. Chem. 2000, 275(13), pp 9792-9796. […]
as §2

[1] = Group 2: db/db mice, per os 20 mg/kg
[2] = Group 3: db/db mice, per os 100 mg/kg
[3] = Group 4: db/db mice, per os 200 mg/kg

| IC50 (SHP-1) [µM] | IC50 (SHP-2) [µM] | IC50 (GLEPP-1) [µM] | IC50 (PTP1B) [µM] | Compound | Decrease in blood glucose (db/db mice; [1]) | Decrease in serum insulin (db/db mice; [1]) | Decrease in blood glucose (db/db mice; [2]) | Decrease in serum insulin (db/db mice; [2]) | Decrease in blood glucose (db/db mice; [3]) | Decrease in serum insulin (db/db mice; [3]) |
| --- | --- | --- | --- | --- | --- | --- | --- | --- | --- | --- |
| 1 | 1.4 | 0.5 |  | CCCCCCCCCCCCCCCNC(=O)c1ccc(CN(Cc2ccc(C(F)(F)F)cc2)C(=O)C(=O)O)cc1 [Example 4, oxo{{4-[(pentadecylamino)carbonyl]benzyl}[4-(trifluoromethyl)benzyl]amino}acetic acid] |  |  |  |  |  |  |
| 2.4 | 2.7 | 1.4 | 2.22 | CCCCCCCCCCCCNC(=O)c1ccc(CN(Cc2ccc(C(F)(F)F)cc2)C(=O)C(=O)O)cc1 [Example 10, {{4-[(dodecylamino)carbonyl]benzyl}[4-(trifluoromethyl)benzyl]amino}(oxo)acetic acid] | 17 percentage of control | −2 percentage of control | 42 percentage of control | 66 percentage of control | 48 percentage of control | 89 percentage of control |

— patent US7592477B2, “Substituted methylene amide derivatives as modulators of protein tyrosine phosphatases (PTPs)” (Laboratoires Serono SA, priority 2002, dated 2009)
